US20120035206A1, “PREPARATION AND APPLICATION OF NOVEL ANTIBACTERIAL AND ANTICANCER COMPOUNDS AND THEIR DERIVATIVES” (priority 2009, published 2012)
≈ marks a conversion by molar mass, not a printed value.

How the values were obtained:
Assay type in all cases: cell-based
[1] = tested on: M. gypseum; assay: In vitro antibacterial (antifungal) test, two-fold dilution MIC; settings: Nannizzia gypsea, RPMI 1640, culture 2-7 days
[2] = tested on: S. schenekn; assay: as above; settings: RPMI 1640, culture 2-7 days
[3] = tested on: C. neoformans; assay: as above; settings: Cryptococcus neoformans, RPMI 1640, culture 2-7 days
[4] = tested on: C. parapsilosis; assay: as above; settings: Lodderomyces parapsilosis, RPMI 1640, culture 2-7 days
[5] = tested on: C. albicans; assay: as above; settings: Candida albicans, read-out: MIC C. albicas
[6] = tested on: C. glabrata; assay: as above; settings: Nakaseomyces glabratus, RPMI 1640, culture 2-7 days
[7] = tested on: C. tropicalis; assay: as above; settings: Candida tropicalis, RPMI 1640, culture 2-7 days
[8] = tested on: A. niger; assay: as above; settings: Aspergillus niger, RPMI 1640, culture 2-7 days
[9] = tested on: E. floccosum; assay: as above; settings: Epidermophyton floccosum, RPMI 1640, culture 2-7 days
[10] = tested on: C. Krusei; assay: as above; settings: Pichia kudriavzevii, RPMI 1640, culture 2-7 days
[11] = tested on: CRL-1435PC-3; assay: In vitro anticancer MTT experiment; settings: concentration 5 ug/ml, 48 h or 72 h, read-out: inhibition ratio CRL-1435PC-3
Method in brief: (§1)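 Cells in RPMI 1640 with 10% fetal calf serum were seeded at 6000-7000 per well, rested 12 h at 37° C., then exposed to compound for 48 h or 72 h. MTT was read as OD at 570 nm. Inhibition ratio was derived against untreated and blank wells, with reported values taken at 5 ug/ml.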

[12] = tested on: HTB-131MDA-MB-453; assay: In vitro anticancer MTT experiment; settings: concentration 5 ug/ml, 48 h or 72 h, read-out: inhibition ratio HTB-131MDA-MB-453
Method in brief: as §1

[13] = tested on: FTC 133; assay: In vitro anticancer MTT experiment; settings: Homo sapiens, concentration 5 ug/ml, 48 h or 72 h, read-out: inhibition ratio FTC 133
Method in brief: as §1

[14] = tested on: CRL-2233SNU-398; assay: In vitro anticancer MTT experiment; settings: concentration 5 ug/ml, 48 h or 72 h, read-out: inhibition ratio CRL-2233SNU-398
Method in brief: as §1

[15] = tested on: AS24391; assay: In vitro anticancer MTT experiment; settings: concentration 5 ug/ml, 48 h or 72 h, read-out: inhibition ratio AS24391
Method in brief: as §1

[16] = tested on: B01092; assay: In vitro anticancer MTT experiment; settings: concentration 5 ug/ml, 48 h or 72 h, read-out: inhibition ratio B01092
Method in brief: as §1

[17] = tested on: HTB-38HT-29; assay: In vitro anticancer MTT experiment; settings: concentration 5 ug/ml, 48 h or 72 h, read-out: inhibition ratio HTB-38HT-29
Method in brief: as §1

[18] = tested on: L1210; assay: In vitro anticancer MTT experiment; settings: Mus musculus, concentration 5 ug/ml, 48 h or 72 h, read-out: inhibition ratio L1210
Method in brief: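 Reported inhibition ratio refers to 5 ug/ml compound, calculated from OD 570 nm against untreated-cell and medium-only references. MTT readout followed 48 h or 72 h drug exposure at 37° C., 5% CO2. Log-phase cells were plated at 6000-7000 per well in RPMI 1640 with 10% FCS.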

[19] = tested on: HTB-95637; assay: In vitro anticancer MTT experiment; settings: concentration 5 ug/ml, 48 h or 72 h, read-out: inhibition ratio HTB-95637
Method in brief: as §1

[20] = tested on: CRL-1469PANC-1; assay: In vitro anticancer MTT experiment; settings: concentration 5 ug/ml, 48 h or 72 h, read-out: inhibition ratio CRL-1469PANC-1
Method in brief: as §1

[21] = tested on: A375; assay: In vitro anticancer MTT experiment; settings: Homo sapiens, A-375, concentration 5 ug/ml, 48 h or 72 h, read-out: inhibition ratio A375
Method in brief: as §1

[22] = tested on: SGC7901; assay: In vitro anticancer MTT experiment; settings: Homo sapiens, SGC-7901, concentration 5 ug/ml, 48 h or 72 h, read-out: inhibition ratio SGC7901
Method in brief: as §1

[23] = tested on: HTB-94; assay: In vitro anticancer MTT experiment; settings: concentration 5 ug/ml, 48 h or 72 h, read-out: inhibition ratio HTB-94
Method in brief: as §1

[24] = tested on: Fusarium oxysporum vasinfectum; assay: In vitro antibacterial (antifungal) test, two-fold dilution MIC; settings: RPMI 1640, culture 2-7 days
[25] = tested on: Setosphaeria turcica; assay: as above; settings: Exserohilum turcicum, RPMI 1640, culture 2-7 days
[26] = tested on: gibberella; assay: as above; settings: RPMI 1640, culture 2-7 days
[27] = tested on: Terchoderma; assay: as above; settings: Trichoderma, RPMI 1640, culture 2-7 days
[28] = tested on: L428; assay: In vitro anticancer MTT experiment; settings: Homo sapiens, L-428, concentration 5 ug/ml, 48 h or 72 h, read-out: inhibition ratio L428
Method in brief: as §1

| Compound | MIC [1] [µg/mL] | MIC [2] [µg/mL] | MIC [3] [µg/mL] | MIC [4] [µg/mL] | MIC [5] [µg/mL] | MIC [6] [µg/mL] | MIC [7] [µg/mL] | MIC [8] [µg/mL] | MIC [9] [µg/mL] | MIC [10] [µg/mL] | inhibition at 5 µg/mL [11] [%] | inhibition at 5 µg/mL [12] [%] | inhibition at 5 µg/mL [13] [%] | inhibition at 5 µg/mL [14] [%] | inhibition at 5 µg/mL [15] [%] | inhibition at 5 µg/mL [16] [%] | inhibition at 5 µg/mL [17] [%] | inhibition at 5 µg/mL [18] [%] | inhibition at 5 µg/mL [19] [%] | inhibition at 5 µg/mL [20] [%] | other results |
| --- | --- | --- | --- | --- | --- | --- | --- | --- | --- | --- | --- | --- | --- | --- | --- | --- | --- | --- | --- | --- | --- |
| Cc1ccc2c(c1)C(=O)CCS2 [Compound 1] | 64 (≈ 359 µM) | 32 (≈ 180 µM) | 64 (≈ 359 µM) | 64 (≈ 359 µM) | 64 (≈ 359 µM) | 64 (≈ 359 µM) | 32 (≈ 180 µM) | 32 (≈ 180 µM) | 32 (≈ 180 µM) | 32 (≈ 180 µM) |  |  |  |  |  |  |  |  |  |  |  |
| Cc1ccc2c(c1)C(=O)/C(=C\O)CS2 [Compound 2] | 32 (≈ 155 µM) | 16 (≈ 77.6 µM) | 32 (≈ 155 µM) | 64 (≈ 310 µM) | 32 (≈ 155 µM) | 32 (≈ 155 µM) | 32 (≈ 155 µM) | 64 (≈ 310 µM) | 32 (≈ 155 µM) | 32 (≈ 155 µM) |  |  |  |  |  |  |  |  |  |  |  |
| Cc1cc2c(cc1F)SC/C(=C\Cl)C2=O [Compound 6, (Z)-3-(chloromethylene)-7-fluoro-6-methylthiochroman-4-one] | 4 (≈ 16.5 µM) | 16 (≈ 65.9 µM) | 4 (≈ 16.5 µM) | 4 (≈ 16.5 µM) | 32 (≈ 132 µM) | 8 (≈ 33 µM) | 16 (≈ 65.9 µM) |  | 32 (≈ 132 µM) | 8 (≈ 33 µM) | 56.7 | 60.7 | 59.3 | 60.1 | 59.8 | 57.9 | 44.2 | 76.9 | 48 | 53.8 | inhibition at 5 µg/mL [21]: 65.8%; inhibition at 5 µg/mL [22]: 45.3%; inhibition at 5 µg/mL [23]: 45.4%; MIC [24]: 16 µg/mL (≈ 65.9 µM); MIC [25]: 4 µg/mL (≈ 16.5 µM); MIC [26]: 8 µg/mL (≈ 33 µM); MIC [27]: 16 µg/mL (≈ 65.9 µM) |
| O=C1/C(=C/Br)CSc2ccc(Cl)cc21 [Compound 10, (Z)-3-(bromomethylene)-6-chlorothiochroman-4-one] | 64 (≈ 221 µM) | 64 (≈ 221 µM) | 4 (≈ 13.8 µM) | 8 (≈ 27.6 µM) | 64 (≈ 221 µM) | 64 (≈ 221 µM) | 32 (≈ 111 µM) |  | 64 (≈ 221 µM) | 16 (≈ 55.3 µM) | 46.6 | 53.5 | 45.6 | 45.6 | 56.7 | 69 | 54.7 | 84.4 | 40.8 | 45.1 | inhibition at 5 µg/mL [28]: 50.6%; inhibition at 5 µg/mL [22]: 56.5%; inhibition at 5 µg/mL [23]: 46.8%; MIC [24]: 64 µg/mL (≈ 221 µM); MIC [25]: 32 µg/mL (≈ 111 µM); MIC [26]: 32 µg/mL (≈ 111 µM); MIC [27]: 16 µg/mL (≈ 55.3 µM) |
